Series [1] concerns MDA-MB-231 breast cancer cell lysates. The series can be described thus: NIRF-based kinase reaction in breast cancer cell lysates with and without PKC-inhibitor cocktail. The class given is biochemical. As to conditions: cGMP 10 μM, MDA-MB-231 cell lysates. The procedure: This allows simultaneous determination of PKG-I kinase activity in MDA-MB-231 breast cancer cell lysates (D).
Each reagent has been previously experimentally tested to be the optimum concentration used for a complete radioactive-free kinase reaction to measure PKG kinase activity. The reagents for homogenizing buffer include: 20 mM Potassium phosphate (pH 7.0), 10 mM EDTA, 0.5 mM isobutylmethylxanthine, and 10 mM DTT.
Table 5 is the disclosure protocol that is illustrated as a work flow in FIG. 7. Biological samples can be prepared in the homogenizing buffer (Table 4) using a variety of techniques. These techniques include, but are not limited to: sonication, dounce-homogenation, the use of a tissue grinder, and/or a detergent specialized for lysing cells. Once a biological sample is prepared in the specially formulated homogenizing buffer from Table 4 or purified/recombinant protein buffer recommended by the manufacturer (2) included in the disclosure, the sample can be added to a sterile microfuge tube containing the radioactive-free kinase reaction mixture containing NIRF-Histone-H2B(29-35) (Table 3 and FIG. 1) (4). The kinase reaction typically requires an incubation chamber capable of reaching a temperature of 30° C. to incubate the samples. The time and temperature of incubation is determined by the researcher, but short incubation times of 2 minutes can be used. […]

Substrate in series [2]: Nc1ncnc2c1ncn2[C@@H]1O[C@H](COP(=O)(O)OP(=O)(O)OP(=O)(O)O)[C@@H](O)[C@H]1O
The series can be described thus: purified protein, by the assay type. The following applies: 30.0 °C.

With `Nc1nc2c(ncn2[C@@H]2O[C@@H]3COP(=O)(O)O[C@H]3[C@H]2O)c(=O)[nH]1` [cGMP, cyclic guanosine monophosphate], the “effect of exogenously-added cGMP on kinase activity in cell lysates” value in series [1] is “does not cause increased kinase activity”.

B1: recombinant PKG-Iα (rPKG-Iα) (Homo sapiens) (protein)
chain: MSELEEDFAKILMLKEERIKELEKRLSEKEEEIQELKRKLHKCQSVLPVPSTHIGPRTTRAQGISAEPQTYRSFHDLRQAFRKFTKSERSKDLIKEAILDNDFMKNLELSQIQEIVDCMYPVEYGKDSCIIKEGDVGSLVYVMEDGKVEVTKEGVKLCTMGPGKVFGELAILYNCTRTATVKTLVNVKLWAIDRQCFQTIMMRTGLIKHTEYMEFLKSVPTFQSLPEEILSKLADVLEETHYENGEYIIRQGARGDTFFIISKGTVNVTREDSPSEDPVFLRTLGKGDWFGEKALQGEDVRTANVIAAEAVTCLVIDRDSFKHLIGGLDDVSNKAYEDAEAKAKYEAEAAFFANLKLSDFNIIDTLGVGGFGRVELVQLKSEESKTFAMKILKKRHIVDTRQQEHIRSEKQIMQGAHSDFIVRLYRTFKDSKYLYMLMEACLGGELWTILRDRGSFEDSTTRFYTACVVEAFAYLHSKGIIYRDLKPENLILDHRGYAKLVDFGFAKKIGFGKKTWTFCGTPEYVAPEIILNKGHDISADYWSLGILMYELLTGSPPFSGPDPMKTYNIILRGIDMIEFPKKIAKNAANLIKKLCRDNPSERLGNLKNGVKDIQKHKWFEGFNWEGLRKGTLTPPIIPSVASPTDTSNFDSFPEDNDEPPPDDNSGWDIDF
Broadly, the Km is the substrate concentration at which the rate is half of its maximum. Regarding B1, the Km in series [2] was determined as 8.8 µM.

These data come from patent US20140287447A1, “Ultrasensitive methodology for quantifying the kinase catalytic activity of any protein kinase in biological/clinical samples or recombinant/purified proteins using near-infrared-fluorescence (NIRF)-labeled, kinase-selective peptide substrates and a combination of kinase-selective inhibitors to …” (priority 2013, published 2014).
